According to ChEMBL document CHEMBL4411276, “Chemistry-oriented synthesis (ChOS) and target deconvolution on neuroprotective effect of a novel scaffold, oxaza spiroquinone” (Eur J Med Chem, 2019):

Experiments:
[1] = Cytotoxicity against LPS-stimulated mouse BV2 cells assessed as cell survival after 24 hrs by MTT assay relative to control; format: cell-based, BV-2; design: concentration or dose not given beside the values; conditions: read-out: Survival
[2] = Cytotoxicity against mouse BV2 cells assessed as cell survival after 24 hrs by MTT assay relative to control; format: cell-based, BV-2; design: concentration or dose not given beside the values; conditions: read-out: Survival
[3] = target: Mitogen-activated protein kinase 8 (Homo sapiens) (UniProt P45983); assay: Inhibition of human JNK1 assessed as enzyme activity at 30 uM using ATF2 as substrate by [gamma-33P]-ATP assay relative to control; design: scale not given: the % may be the effect or the level left
[4] = target: CDK2/Cyclin O (Homo sapiens) (UniProt P24941+P22674); assay: Inhibition of human CDK2/cyclin-O assessed as enzyme activity at 30 uM using histone H1 as substrate by [gamma-33P]-ATP assay relative to control; format: protein-complex assay; design: scale not given: the % may be the effect or the level left
[5] = target: Death-associated protein kinase 1 (Homo sapiens) (UniProt P53355); assay: Inhibition of human DAPK1 assessed as enzyme activity at 30 uM using KKLNRTLSFAEPG as substrate by [gamma-33P]-ATP assay relative to control; design: scale not given: the % may be the effect or the level left
[6] = target: Protein kinase C alpha type (Homo sapiens) (UniProt P17252); assay: Inhibition of human PKCalpha assessed as enzyme activity at 30 uM using ERMRPRKRQGSVRRRV as substrate by [gamma-33P]-ATP assay relative to control; design: scale not given: the % may be the effect or the level left
[7] = target: Cyclin-dependent kinase 1/cyclin B1 (Homo sapiens) (UniProt P06493+P14635); assay: Inhibition of human CDK1/cyclinB assessed as enzyme activity at 30 uM using Histone H1 as substrate by [gamma-33P]-ATP assay relative to control; format: protein-complex assay; design: scale not given: the % may be the effect or the level left
[8] = target: Serine/threonine-protein kinase 24 (Homo sapiens) (UniProt Q9Y6E0); assay: Inhibition of human MST3 assessed as enzyme activity at 30 uM using MBP as substrate by [gamma-33P]-ATP assay relative to control; design: scale not given: the % may be the effect or the level left
[9] = target: T1, Serine/threonine-protein kinase tousled-like 1 (Homo sapiens) (UniProt Q9UKI8); assay: Inhibition of human TLK1 assessed as enzyme activity at 30 uM using Histone H3 as substrate by [gamma-33P]-ATP assay relative to control; design: scale not given: the % may be the effect or the level left
T1 sequence (whole entry): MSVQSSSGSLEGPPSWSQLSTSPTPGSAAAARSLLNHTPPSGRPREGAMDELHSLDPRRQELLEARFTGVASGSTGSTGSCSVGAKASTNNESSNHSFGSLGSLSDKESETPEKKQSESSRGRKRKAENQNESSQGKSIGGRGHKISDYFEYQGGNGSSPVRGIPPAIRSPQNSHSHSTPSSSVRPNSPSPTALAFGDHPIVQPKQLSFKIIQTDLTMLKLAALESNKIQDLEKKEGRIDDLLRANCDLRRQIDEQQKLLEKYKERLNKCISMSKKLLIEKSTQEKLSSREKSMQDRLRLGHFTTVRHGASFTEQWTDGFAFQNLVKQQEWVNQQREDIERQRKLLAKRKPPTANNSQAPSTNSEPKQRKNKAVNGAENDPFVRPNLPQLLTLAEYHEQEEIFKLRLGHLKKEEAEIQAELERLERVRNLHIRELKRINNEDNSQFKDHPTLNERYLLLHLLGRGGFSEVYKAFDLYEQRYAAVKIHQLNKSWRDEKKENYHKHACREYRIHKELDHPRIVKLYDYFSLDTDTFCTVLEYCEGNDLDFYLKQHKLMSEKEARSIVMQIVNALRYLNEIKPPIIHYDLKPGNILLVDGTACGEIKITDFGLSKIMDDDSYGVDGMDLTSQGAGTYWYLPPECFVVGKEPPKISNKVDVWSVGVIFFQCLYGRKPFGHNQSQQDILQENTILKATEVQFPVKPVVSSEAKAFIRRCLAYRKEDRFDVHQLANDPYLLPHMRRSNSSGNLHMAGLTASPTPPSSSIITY

[10] = target: CDK3/Cyclin E (Homo sapiens) (UniProt P24864+Q00526); assay: Inhibition of human CDK3/cyclin-E assessed as enzyme activity at 30 uM using histone H1 as substrate by [gamma-33P]-ATP assay relative to control; format: protein-complex assay; design: scale not given: the % may be the effect or the level left
[11] = target: Serine/threonine-protein kinase N2 (Homo sapiens) (UniProt Q16513); assay: Inhibition of human PKN2 assessed as enzyme activity at 30 uM using KKLNRTLSVA as substrate by [gamma-33P]-ATP assay relative to control; design: scale not given: the % may be the effect or the level left
[12] = target: Serine/threonine-protein kinase 25 (Homo sapiens) (UniProt O00506); assay: Inhibition of human STK25 assessed as enzyme activity at 30 uM using MBP as substrate by [gamma-33P]-ATP assay relative to control; design: scale not given: the % may be the effect or the level left
[13] = target: T2, NUAK family SNF1-like kinase 1 (Homo sapiens) (UniProt O60285); assay: Inhibition of human ARK5 assessed as enzyme activity at 30 uM using KKKVSRSGLYRSPSMPENLNRPR as substrate by [gamma-33P]-ATP assay relative to control; design: scale not given: the % may be the effect or the level left
T2 sequence (whole entry): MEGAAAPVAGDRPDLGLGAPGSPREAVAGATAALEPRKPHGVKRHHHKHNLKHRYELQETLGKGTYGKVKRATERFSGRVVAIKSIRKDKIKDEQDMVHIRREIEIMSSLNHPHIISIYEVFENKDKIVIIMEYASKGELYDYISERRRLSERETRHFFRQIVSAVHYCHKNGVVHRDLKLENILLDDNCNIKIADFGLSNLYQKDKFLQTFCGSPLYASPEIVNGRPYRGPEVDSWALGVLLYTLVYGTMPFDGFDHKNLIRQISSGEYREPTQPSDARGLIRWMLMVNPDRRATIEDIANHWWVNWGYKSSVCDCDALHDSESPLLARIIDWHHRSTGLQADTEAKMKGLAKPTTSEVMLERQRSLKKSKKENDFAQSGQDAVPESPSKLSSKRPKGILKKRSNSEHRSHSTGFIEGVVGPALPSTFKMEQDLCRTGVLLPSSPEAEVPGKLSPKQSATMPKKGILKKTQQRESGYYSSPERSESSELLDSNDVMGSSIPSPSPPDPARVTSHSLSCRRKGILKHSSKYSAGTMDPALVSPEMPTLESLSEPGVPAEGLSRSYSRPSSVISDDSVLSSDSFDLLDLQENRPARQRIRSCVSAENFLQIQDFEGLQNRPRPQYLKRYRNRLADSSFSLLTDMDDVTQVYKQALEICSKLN

[14] = target: Protein kinase C beta type (Homo sapiens) (UniProt P05771); assay: Inhibition of human PKCb2 assessed as enzyme activity at 30 uM using Histone H1 as substrate by [gamma-33P]-ATP assay relative to control; design: scale not given: the % may be the effect or the level left
[15] = target: Mitogen-activated protein kinase 10 (Homo sapiens) (UniProt P53779); assay: Inhibition of human JNK3 assessed as enzyme activity at 30 uM using ATF2 as substrate by [gamma-33P]-ATP assay relative to control; design: scale not given: the % may be the effect or the level left
Mus musculus = assay: Effect on total entries in ICR mouse model of scopolamine-induced memory impairment at 5 mg/kg by Y-maze test; format: ADME, organism-based; conditions: in vivo

O=C1C=CC2(C=C1)OCC(Cc1cc(C(F)(F)F)cc(C(F)(F)F)c1)C(=O)N2c1ccccc1 (stereo unspecified)
viability at 24 h [1]: 92.1%
viability at 24 h [2]: 85.4%
Activity [3]: 35.6 to 36%
Activity [4]: 42.3 to 43.8%
Activity [5]: 45.3 to 45.4%
Activity [6]: 44.8 to 46.5%
Activity [7]: 45.4 to 46.5%
Activity [8]: 57.6 to 58.2%
Activity [9]: 57.3 to 58.6%
Activity [10]: 58.5 to 60.2%
Activity [11]: 62.2 to 64.8%
Activity [12]: 66.9 to 67%
Activity [13]: 70.7 to 70.8%
Activity [14]: 67.7 to 71.2%
Activity [15]: 70.6 to 73.4%
Activity (Mus musculus): Non-Toxic
